Test results published in US20250057928A1, “VACCINE COMPOSITION FOR INDUCING ANTI-IL-23 ANTIBODY” (OSAKA UNIVERSITY, priority 2021, published 2025).
Where no end group is shown, it is not given here.

Assays:
[1] = test system: epitope peptide; assay: Antibody titer (GMT) of serum of mice administered AJP001 conjugated peptide, ELISA; assay type: in vivo, mouse; conditions: BALB/c mice, no adjuvant; for antibody titer (GMT) over time: 1 mg/body intradermal 3 times at two-week intervals, blood every 2 weeks until 8 weeks
Protocol: AJP001 conjugated peptide having one of the B cell epitope sequences of SEQ ID NOs: 1-5 was dissolved in physiological saline and intradermally administered twice to BALB/c mice (female, 6-week-old, N=5-6) at 0.5 mg/body at 2-week intervals. Blood was collected before administration and 5 weeks after the initial administration, and the antibody titer against each AJP001 conjugated peptide and the binding ability to recombinant mouse IL-23 protein (rmIL-23) were measured by the ELISA method. Specifically, a 96-well plate immobilized with an epitope peptide dissolved at 10 μg/mL in carbonate buffer was blocked with 5% skim milk/PBS, and then serum serially diluted with 5% skim milk/PBS was added, and the mixture was left standing at 4° C. overnight. After washing the wells with PBS-T, HRP-labeled anti-mouse IgG antibody (GE Healthcare) diluted with 5% skim milk/PBS was added and the mixture was shaken at room temperature for 3 hr. After washing the wells with PBS-T, TMB solution (SIGMA) was added, the wells were allowed to stand for 30 min in the dark, the reaction was stopped by adding 0.5M H2SO4, and the absorbance at 450 nm was measured using a plate reader. The serum dilution rate that gave 1/2 (OD=1.75) of the maximum absorbance was defined as the antibody titer, and the geometric mean titer: GMT was calculated from the individual values. Binding to IL-23 protein was measured by the ELISA method in the same manner as the antibody titer, using rmIL-23 (Antibodies-online GmbH) as the solid-phased antigen and goat serum for blocking.
AJP001 conjugated peptide (SEQ ID NO: 2) was dissolved in physiological saline and intradermally administered to BALB/c mice (female, 6-week-old, N=6) at 1 mg/body 3 times at two-week intervals, and blood was collected every 2 weeks until 8 weeks. The antibody titer (GMT) of all the collected sera and the binding ability to rmIL-23 of the serum at the time point of 6 weeks were measured by the ELISA method (same method as in Example 1). The antibody titer and the binding of the induced antibody to rmIL-23 at each time point are shown in FIGS. 2 (a) and (b), respectively.
AJP001 conjugated peptide (SEQ ID NOs: 6-37) was dissolved in physiological saline, mixed with an equal amount of 2% Alhydrogel (invivogen), and this was intradermally administered to BALB/c mice (female, 6-week-old, N=5-6) at 0.5 mg/body 3 times at two-week intervals. Blood was collected before administration and at the time point of 6 weeks after initial administration, and the antibody titer (GMT) to each epitope sequence and binding ability to recombinant human IL-23 protein (rhIL-23) (Peprotech) were measured by the ELISA method (same method as in Example 1). The binding to rhIL-23 was evaluated by a binding ratio to normal serum by calculating the ratio of the absorbance of a well added with normal mouse serum to the absorbance of a well added with antiserum derived from a mouse administered with each AJP001 conjugated peptide (SEQ ID NOs: 6-37). In addition, the neutralization activity of mouse antiserum was evaluated using an action on IL-17 production in rhIL-23 stimulated mouse splenocyte as an index. The spleen of normal BALB/c mouse (female, 5-week-old, N=3) was triturated using a syringe barrel and a cell strainer and washed with and suspended in HBSS (−). Erythrocytes were then removed using ACK Buffer (Thermo fisher scientific), and splenocytes were isolated. The splenocytes were prepared to 2.5×10^6 cells/mL with 10% FBS/1% penicillin/streptomycin/4 ng/mL rmIL-2-containing RPMI1640 medium (culture medium), and seeded in a 96 well plate at 100 μl/well. The antiserum (final concentration 15-fold) of the mice administered with each AJP001 conjugated peptide and rhIL-23 (final concentration 10 ng/ml) were added to the culture medium, reacted at 37° C. for 2 hr, added at 100 μL/well to a 96-well plate seeded with splenocytes, and cultured for 3 days in a 37° C./5% CO2 incubator. […]

[2] = test system: splenocytes; assay: ELISPOT assay for T cell activation (IFN-γ, IL-4) in splenocytes of administered mice; assay type: cell-based, mouse; conditions: splenocytes 7 weeks after first administration, stimulated with 10 μg/mL AJP001 alone or 10 μg/mL AJP001 conjugated peptide
Protocol: In addition, ELISPOT assay was performed to evaluate T cell activation. AJP001 conjugated peptide (SEQ ID NO: 2) or physiological saline was administered three times at two-week intervals to BALB/c mice (female, 6-week-old, N=3-4), and the spleen was collected 7 weeks after the first administration. The collected spleen was triturated using a syringe barrel and a cell strainer. This was washed with and suspended in HBSS (−), erythrocytes were removed using ACK Buffer (Thermo fisher scientific), and splenocytes were isolated. Using Mouse IFN-γ ELISpot assay kit and Mouse IL-4 ELISpot assay kit (R&D systems), the cells were prepared to 2.5×10^6 cells/mL with 10% FBS/1% penicillin/streptomycin/4 ng/mL rmIL-2-containing RPMI1640 medium (culture medium), and seeded at 100 μL/well on the 96-well plate of which each capture antibody was immobilized. Splenocytes were stimulated by adding (1) medium alone, (2) 10 μg/mL T cell antigen AJP001 (SEQ ID NO: 38) alone, (3) 10 μg/mL AJP001 conjugated peptide (SEQ ID NO: 2), or (4) 100 ng/mL PMA/ionomycin (PMA/IM, Sigma) to each well. Stimulation was performed for 2 days in a […]. Then, a detection antibody was added and, after washing, a colorimetric reaction was performed. The stained cells were measured with a microscope. The number of IFN-γ and IL-4 positive cells was calculated as the number of cells per 10^6 cell number (SFC/10^6 cells). In FIG. 2, “*” means significant (P<0.05).
In addition, AJP001 conjugated peptide (SEQ ID NO: 6) or physiological saline was administered three times at two-week intervals to BALB/c mouse (female, 6-week-old, N=3-4), and the spleen was collected 7 weeks after the first administration. The collected spleen was subjected to ELISPOT assay using Mouse IFN-γ ELISpot assay kit and Mouse IL-4 ELISpot assay kit (R&D systems).

SEQ ID NO 2: AJP001-Ahx-B cell epitope peptide conjugate; epitope SSSQQWQR (mouse 152-159) (not fully specified (N-terminus); listed as Mus musculus)
antibody titer ([1]; 0.5 mg/body intradermal twice at 2-week intervals, 5 weeks after initial administration): significant increase
antibody titer (GMT) over time [1]: increased from the 2nd week and persisted until the 8th week
number of IFN-γ positive cells [2]: increase
number of IL-4 positive cells [2]: increase

SEQ ID NO 6: AJP001-Ahx-B cell epitope peptide conjugate; epitope SPSQPWQR (human 151-158) (not fully specified (N-terminus); listed as Homo sapiens)
antibody titer (GMT) over time [1]: increased from the 2nd week and persisted until the 8th week
number of IFN-γ positive cells [2]: increase
number of IL-4 positive cells [2]: increase
